The text below walks through data of patent US20240025903A1, “Bicyclic Compounds and Uses Thereof for the Treatment of Diseases” (Athira Pharma, Inc., priority 2020, published 2024).

The subject of data set [1] is scopolamine-induced spatial memory deficit in rats. The data set can be described thus: Scopolamine-induced spatial memory deficit in the Morris water maze (compound 1a). It is filed as in vivo. The conditions noted are these: rat, scopolamine 2 mg/kg IP, escape latency over 5 days, post-test p-value. The protocol:
Exemplary compound 1a was evaluated for its ability to reverse chemically-induced spatial memory deficits in rats in the Morris water maze. The water maze consists of a large round tank (diameter 1.5 m) filled with 23-26° C. water to a depth of −30 cm and the water was clouded with white paint. A round platform was fixed such that it rested 2-3 cm below the surface of the water. High-contrast visual cues were placed around the tank to aid spatial orientation of test animals. Testing consisted of placing an animal into the water facing the tank wall at one of three randomly assigned starting locations and allowing the animal to swim and search for the hidden platform for up to 90 seconds. The time taken for the animal to locate the platform was recorded as the escape latency. Animals were tested 5 times per day with a 30 second rest period between trials. Testing was completed for a total of 5 consecutive days.
Animals were divided into groups (N=12 per group) depending on treatment. Control animals received only empty vehicle. Scopolamine groups received 2 mg/kg scopolamine dissolved in sterile saline by intraperitoneal (IP) injection 30 minutes prior to testing. Test compound groups received test compound at various concentrations by oral gavage (PO) dissolved in 78% sterile saline, 20% polyethylene glycol (PEG-400), and 2% DMSO 40 minutes prior to testing. Escape latencies were recorded for each animal for 5 trials each day for 5 consecutive days. Changes in escape latency curves were statistically analyzed by 2-way ANOVA with Bonferoni post-test.

Data set [2] in a line: In vivo tissue distribution. Set-up: species or system Sprague-dawley rats. The conditions noted are these: rat. How it is done:
The rate of distribution to target tissues is an important feature of therapeutic molecules. Tissue distribution of exemplary compounds was performed in mixed-sex Sprague-dawley rats. Test compounds were delivered via tail vein injection (IV) and tissues were collected at Tmax (10 minutes post administration). Animals were deeply anesthetized with isoflurane and whole blood was collected from the right atrium and processed by centrifugation to produce plasma. Animals were then fully perfused with PBS administered to the left ventricle to prevent blood contamination of tissues.
Tissues were collected and homogenized, and compound content in the target tissue was quantified by LC-MS/MS. Tissue distribution rates were determined by dividing the tissue concentration of compound by the plasma concentration and multiplying by 100.

Data set [3] in a line: Non-specific protein binding (rapid equilibrium dialysis). The data set is classed as in vitro ADME, Sprague-Dawley rats. The following applies: both sexes, Sprague-Dawley, RED device, 4-hour incubation at 37° C. The protocol: Plasma and tissue exposures of exemplary compounds were scaled by their non-specific affinity for protein binding in target tissues or fluids to determine the fraction of compound available for interaction with the target. Non-specific binding was determined in blood plasma and brain homogenate collected from mixed-sex Sprague-Dawley rats.
Known concentrations of test compounds were mixed with plasma or brain homogenate and incubated in the donor chamber of a rapid equilibrium dialysis (RED) device with empty PBS buffer in the receiving chamber. After a 4-hour incubation at 37° C. in an orbital shaking incubator, compound in each chamber was quantified by LC-MS/MS. The unbound fraction (fu,tissue) was calculated using the following formula:
[formula] • where: • fu,tissue is the unbound fraction in the tissue; • fu,homogenate is the ratio of concentration in the buffer chamber to concentration in the sample chamber; and • D is the dilution factor used to produce the sample.

Like-named read-outs stand apart in the source and are kept apart here.

Usually fraction unbound stands for the share of the substance not bound to proteins or other matrix. For the compound `CCC(C)CN1CC2N(C(=O)c3ccc(C(F)(F)F)cc3)CCC(=O)N2[C@@H](C)C1=O` (stereo partly drawn) [Compound 1a], the “Cognitive Improvement” value was “+ (+ indicates post-test p-value between 0.06 and 0.05)” in data set [1] (0.5 mg/kg PO); “− (− indicates post-test p-value above 0.06)” in data set [1] (2 mg/kg PO); “− (− indicates post-test p-value above 0.06)” in data set [1] (8 mg/kg PO). Moreover, the “Tissue Distribution (% Plasma exposure at 10 min post IV dose) Brain” value in data set [2] (brain) was “++ (++ indicates distribution between 5 and 39%)”. The “Tissue Distribution (% Plasma exposure at 10 min post IV dose) Cerebellum” value in data set [2] (cerebellum) was “++ (++ indicates distribution between 5 and 39%)”. The “Tissue Distribution (% Plasma exposure at 10 min post IV dose) Cortex” value in data set [2] (cortex) was “++ (++ indicates distribution between 5 and 39%)”. The “Tissue Distribution (% Plasma exposure at 10 min post IV dose) Hippocampus” value in data set [2] (hippocampus) is “++ (++ indicates distribution between 5 and 39%)”. Moreover, the fraction unbound at 4 h in data set [3] (rat blood plasma, read-out: Unbound Fraction Plasma) lay in the range of 0.5 to 0.9; in data set [3] (rat brain homogenate, read-out: Unbound Fraction Brain), 0.1 to 0.5.
